{"source": "the supplement of paper PMC10307832", "test_in_all_cases": "relative viability (nuclei count vs DMSO), 5 days (fraction); higher = more cells survive", "key": {"BMX-IN-1 + Pemetrexed": {"compound": "C=CC(=O)Nc1cc(-n2c(=O)ccc3cnc4ccc(-c5ccc(NS(C)(=O)=O)cc5)cc4c32)ccc1C [BMX-IN-1] + Nc1nc2[nH]cc(CCc3ccc(C(=O)N[C@@H](CCC(=O)O)C(=O)O)cc3)c2c(=O)[nH]1 [Pemetrexed] (partner 0.2 µM)", "summary_of_the_method": "(§1)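 Lung cancer cell lines in 1536-well plates were dosed by pin tool the day after seeding, either with one drug alone or with a fixed anchor-drug dose plus five library-drug doses (not always all listed) in √10 steps. After 5 days, cells were fixed and their nuclei stained in one step (final 0.05% Triton X-100, 1% formaldehyde, 1 ug/ml Hoechst), then counted on 4× images. Relative viability is the nuclei count in treated wells divided by that in vehicle wells. Values are medians of duplicate plates.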"}, "PAC-1 + Foretinib": {"compound": "C=CCc1cccc(/C=N/NC(=O)CN2CCN(Cc3ccccc3)CC2)c1O [PAC-1] + COc1cc2c(Oc3ccc(NC(=O)C4(C(=O)Nc5ccc(F)cc5)CC4)cc3F)ccnc2cc1OCCCN1CCOCC1 [Foretinib] (partner 0.25 µM)", "summary_of_the_method": "as §1"}, "BMX-IN-1 + Dasatinib": {"compound": "C=CC(=O)Nc1cc(-n2c(=O)ccc3cnc4ccc(-c5ccc(NS(C)(=O)=O)cc5)cc4c32)ccc1C [BMX-IN-1] + Cc1nc(Nc2ncc(C(=O)Nc3c(C)cccc3Cl)s2)cc(N2CCN(CCO)CC2)n1 [Dasatinib] (partner 0.075 µM)", "summary_of_the_method": "as §1"}, "PAC-1 + Lapatinib": {"compound": "C=CCc1cccc(/C=N/NC(=O)CN2CCN(Cc3ccccc3)CC2)c1O [PAC-1] + CS(=O)(=O)CCNCc1ccc(-c2ccc3ncnc(Nc4ccc(OCc5cccc(F)c5)c(Cl)c4)c3c2)o1 [Lapatinib] (partner 2 µM)", "summary_of_the_method": "as §1"}}}
{"cell line": "SK-MES-1", "values": [{"measurement": "relative viability", "setting": "BMX-IN-1 + Pemetrexed; first compound 0.02 µM", "value": 1.11}, {"measurement": "relative viability", "setting": "BMX-IN-1 + Pemetrexed; first compound 0.2 µM", "value": 1.11}, {"measurement": "relative viability", "setting": "BMX-IN-1 + Pemetrexed; first compound 0.6325 µM", "value": 1.03}, {"measurement": "relative viability", "setting": "BMX-IN-1 + Pemetrexed; first compound 2 µM", "value": 0.859}, {"measurement": "relative viability", "setting": "PAC-1 + Foretinib; first compound 0.02 µM", "value": 0.816}, {"measurement": "relative viability", "setting": "PAC-1 + Foretinib; first compound 0.06325 µM", "value": 1.03}, {"measurement": "relative viability", "setting": "PAC-1 + Foretinib; first compound 0.2 µM", "value": 0.851}, {"measurement": "relative viability", "setting": "PAC-1 + Foretinib; first compound 2 µM", "value": 0.943}, {"measurement": "relative viability", "setting": "BMX-IN-1 + Dasatinib; first compound 0.02 µM", "value": 0.43}, {"measurement": "relative viability", "setting": "BMX-IN-1 + Dasatinib; first compound 0.2 µM", "value": 0.317}, {"measurement": "relative viability", "setting": "BMX-IN-1 + Dasatinib; first compound 0.6325 µM", "value": 0.337}, {"measurement": "relative viability", "setting": "BMX-IN-1 + Dasatinib; first compound 2 µM", "value": 0.34}, {"measurement": "relative viability", "setting": "PAC-1 + Lapatinib; first compound 0.02 µM", "value": 0.455}, {"measurement": "relative viability", "setting": "PAC-1 + Lapatinib; first compound 0.06325 µM", "value": 0.457}, {"measurement": "relative viability", "setting": "PAC-1 + Lapatinib; first compound 0.2 µM", "value": 0.443}, {"measurement": "relative viability", "setting": "PAC-1 + Lapatinib; first compound 2 µM", "value": 0.445}]}
